Paper PMC8319832, “Fine-Tuning of Alkaline Residues on the Hydrophilic Face Provides a Non-toxic Cationic α-Helical Antimicrobial Peptide Against Antibiotic-Resistant ESKAPE Pathogens” (Frontiers in Microbiology, 2021)
Converted amounts (≈) assume the structure as drawn. Where a SMILES comes first, the peptide text is derived from it.

Assays:
S. aureus 1176 = assay: Drug sensitivity, Kirby-Bauer test; assay type: cell-based, Staphylococcus aureus; design: key: 'S' represents susceptibility; 'I' represents intermediate efficacy; 'R' represents resistance; conditions: clinical isolate
Protocol: (§1) The bacteria used in this study included the standard strains S. aureus ATCC29213 and ATCC25923, E. faecalis ATCC29212, E. coli ATCC25922 and ATCC35218, A. baumannii ATCC19606, K. pneumoniae ATCC700603 and P. aeruginosa ATCC27853, these strains were purchased from the China Center of Type Culture Collection (CCTCC). The antimicrobial activities of the peptides were also determined against clinically isolated strains S. aureus 4188, 9124, 1176, S. epidermidis 9092, 6943, 888, E. faecalis 901, E. faecium 898, E. coli 2678, 2687, K. pneumoniae 9126, P. aeruginosa 9014, 9042, and A. baumannii 906, 13012, 13079, 9068, these strains were acquired from Taihe Hospital, Hubei University of Medicine. The drug sensitivities of the clinical isolates to the antibiotics were determined by the Kirby-Bauer test ([Chinnambedu et al., 2020]).

S. aureus 9124 = assay: Drug sensitivity, Kirby-Bauer test; assay type: cell-based, Staphylococcus aureus; design: key: 'S' represents susceptibility; 'I' represents intermediate efficacy; 'R' represents resistance; conditions: clinical isolate, MRSA
Protocol: as §1

S. aureus 4188 = assay: Drug sensitivity, Kirby-Bauer test; assay type: cell-based, Staphylococcus aureus; design: key: 'S' represents susceptibility; 'I' represents intermediate efficacy; 'R' represents resistance; conditions: clinical isolate
Protocol: as §1

S. epidermidis 888 = assay: Drug sensitivity, Kirby-Bauer test; assay type: cell-based; design: key: 'S' represents susceptibility; 'I' represents intermediate efficacy; 'R' represents resistance; conditions: clinical isolate
Protocol: as §1

S. epidermidis 6943 = assay: Drug sensitivity, Kirby-Bauer test; assay type: cell-based; design: key: 'S' represents susceptibility; 'I' represents intermediate efficacy; 'R' represents resistance; conditions: clinical isolate, MRSE
Protocol: as §1

S. epidermidis 9092 = assay: Drug sensitivity, Kirby-Bauer test; assay type: cell-based; design: key: 'S' represents susceptibility; 'I' represents intermediate efficacy; 'R' represents resistance; conditions: clinical isolate, MRSE
Protocol: as §1

A. baumannii 906 = assay: Drug sensitivity, Kirby-Bauer test; assay type: cell-based, Acinetobacter baumannii; design: key: 'S' represents susceptibility; 'I' represents intermediate efficacy; 'R' represents resistance; conditions: clinical isolate, CRE, MDR
Protocol: as §1

A. baumannii 9068 = assay: Drug sensitivity, Kirby-Bauer test; assay type: cell-based, Acinetobacter baumannii; design: key: 'S' represents susceptibility; 'I' represents intermediate efficacy; 'R' represents resistance; conditions: clinical isolate, CRE, MDR
Protocol: as §1

A. baumannii 13012 = assay: Drug sensitivity, Kirby-Bauer test; assay type: cell-based, Acinetobacter baumannii; design: key: 'S' represents susceptibility; 'I' represents intermediate efficacy; 'R' represents resistance; conditions: clinical isolate, CRE, MDR
Protocol: as §1

A. baumannii 13079 = assay: Drug sensitivity, Kirby-Bauer test; assay type: cell-based, Acinetobacter baumannii; design: key: 'S' represents susceptibility; 'I' represents intermediate efficacy; 'R' represents resistance; conditions: clinical isolate, CRE, MDR
Protocol: as §1

P. aeruginosa 9014 = assay: Drug sensitivity, Kirby-Bauer test; assay type: cell-based, Pseudomonas aeruginosa; design: key: 'S' represents susceptibility; 'I' represents intermediate efficacy; 'R' represents resistance; conditions: clinical isolate, CRE, MDR
Protocol: as §1

P. aeruginosa 9042 = assay: Drug sensitivity, Kirby-Bauer test; assay type: cell-based, Pseudomonas aeruginosa; design: key: 'S' represents susceptibility; 'I' represents intermediate efficacy; 'R' represents resistance; conditions: clinical isolate
Protocol: as §1

K. pneumoniae 9126 = assay: Drug sensitivity, Kirby-Bauer test; assay type: cell-based, Klebsiella pneumoniae; design: key: 'S' represents susceptibility; 'I' represents intermediate efficacy; 'R' represents resistance; conditions: clinical isolate, CRE
Protocol: as §1

E. coli 2678 = assay: Drug sensitivity, Kirby-Bauer test; assay type: cell-based, Escherichia coli; design: key: 'S' represents susceptibility; 'I' represents intermediate efficacy; 'R' represents resistance; conditions: clinical isolate, ESBL
Protocol: as §1

E. coli 2687 = assay: Drug sensitivity, Kirby-Bauer test; assay type: cell-based, Escherichia coli; design: key: 'S' represents susceptibility; 'I' represents intermediate efficacy; 'R' represents resistance; conditions: clinical isolate, ESBL
Protocol: as §1

E. coli ATCC25922 = assay: MIC, broth dilution; assay type: cell-based, Escherichia coli; conditions: CLSI broth dilution, MHB, 6.25 × 10^5 cfu per ml, 37°C, 20 h, OD630, at least three repeats
[1] = test system: human red blood cells (hRBCs); assay: Hemolytic activity determination; assay type: cell-based; conditions: peptide 25 μg ml^–1; hRBCs in 0.9% sodium chloride, 37°C, 1 h, OD540, 1% Triton X-100 = 100%; three independent experiments
Protocol: Fresh human red blood cells (hRBCs) were collected in a sterile borosilicate glass tube covered with sodium citrate as the anticoagulating agent. […] Two-fold dilutions of the peptides were prepared in 0.9% sodium chloride to 100 μl and mixed with equal volumn of hRBC suspension to final peptide concentrations ranging from 12.5 to 200 μg ml^–1. After co-incubation at 37°C for 1 h, the samples were centrifuged (2,000 × g, 4°C, 20 min), and the supernatant (100 μl) was taken for optical density (OD540) measurements (Asample). The hRBCs assayed with 0.9% sodium chloride (Ablank) or 1% Triton X-100 (Apositive) were applied as 0% and 100% hemolysis, respectively. Three independent experiments were performed and the percent hemolysis was calculated according to the following equation ([Yin et al., 2012]; [Li et al., 2016]):
Hemolysis(%)=100*(Asample-Ablank)/(Apositive-Ablank)

S. aureus ATCC29213 = assay: MIC, broth dilution; assay type: cell-based, Staphylococcus aureus; conditions: CLSI broth dilution, MHB, 6.25 × 10^5 cfu per ml, 37°C, 20 h, OD630, at least three repeats
Protocol: All experiments were repeated at least three times.
To study the influence of physiological ions on the antimicrobial activities of the peptides, The MICs of the peptides were also determined against the standard bacterial strains cultured in MHB containing various salts at their physiological concentrations (150 mM NaCl, 4.5 mM KCl, 1 mM MgCl2, 2 mM CaCl2, 6 μM NH4HCO3, and 4 μM FeCl3) ([Ma et al., 2016]).

E. faecium 898 = assay: Drug sensitivity, Kirby-Bauer test; assay type: cell-based, Enterococcus faecium; design: key: 'S' represents susceptibility; 'I' represents intermediate efficacy; 'R' represents resistance; conditions: clinical isolate
Protocol: as §1

Row | Molecule | Drug sensitivity of the isolate to the antibiotic (S. aureus 1176) | Drug sensitivity of the isolate to the antibiotic (S. aureus 9124) | Drug sensitivity of the isolate to the antibiotic (S. aureus 4188) | Drug sensitivity of the isolate to the antibiotic (S. epidermidis 888) | Drug sensitivity of the isolate to the antibiotic (S. epidermidis 6943) | Drug sensitivity of the isolate to the antibiotic (S. epidermidis 9092) | Drug sensitivity of the isolate to the antibiotic (A. baumannii 906) | Drug sensitivity of the isolate to the antibiotic (A. baumannii 9068) | Drug sensitivity of the isolate to the antibiotic (A. baumannii 13012) | Drug sensitivity of the isolate to the antibiotic (A. baumannii 13079) | Drug sensitivity of the isolate to the antibiotic (P. aeruginosa 9014) | Drug sensitivity of the isolate to the antibiotic (P. aeruginosa 9042) | Drug sensitivity of the isolate to the antibiotic (K. pneumoniae 9126) | Drug sensitivity of the isolate to the antibiotic (E. coli 2678) | Drug sensitivity of the isolate to the antibiotic (E. coli 2687) | MIC (E. coli ATCC25922) [µg/mL] | percent hRBC hemolysis [1] [%] | MIC (S. aureus ATCC29213) [µg/mL] | Drug sensitivity of the isolate to the antibiotic (E. faecium 898)
1 | CO[C@@]1(NC(=O)Cc2cccs2)C(=O)N2C(C(=O)O)=C(COC(N)=O)CS[C@@H]21 [Cefoxitin] | R | R | R | I | R | R |  |  |  |  |  |  |  |  |  |  |  |  | 
2 | Ticarcillin/clavulanic acid |  |  |  |  |  |  | R | R | R | R | R | R | S | S |  |  |  |  | 
3 | NCC[C@H](O)C(=O)N[C@@H]1C[C@H](N)[C@@H](O[C@H]2O[C@H](CN)[C@@H](O)[C@H](O)[C@H]2O)[C@H](O)[C@H]1O[C@H]1O[C@H](CO)[C@@H](O)[C@H](N)[C@H]1O [Amikacin] |  |  |  |  |  |  | R | R | R | R | S | S | S | S | S |  |  |  | 
4 | CC[C@H](C)[C@H](NC(=O)[C@H](CCCNC(=N)N)NC(=O)[C@H](CCCCN)NC(=O)[C@@H](NC(=O)[C@@H](N)Cc1ccccc1)[C@@H](C)CC)C(=O)N[C@@H](C)C(=O)N[C@@H](CCCNC(=N)N)C(=O)N[C@@H](CC(C)C)C(=O)N[C@@H](CC(C)C)C(=O)N[C@@H](CO)C(=O)N[C@@H](CCCCN)C(=O)N[C@H](C(=O)N[C@@H](Cc1ccccc1)C(N)=O)[C@@H](C)CC [Kn2(G3K_A4R)] (H-FIKRIARLLSKIF-NH2) |  |  |  |  |  |  |  |  |  |  |  |  |  |  |  | 10 (≈ 6.23 µM) | 8.3 | 5 (≈ 3.12 µM) | 
5 | CN(C)[C@@H]1C(O)=C(C(N)=O)C(=O)[C@@]2(O)C(O)=C3C(=O)c4c(O)cccc4[C@@](C)(O)[C@H]3C[C@@H]12 [Tetracycline] | S | R | S | R | S | R |  |  |  |  |  |  |  |  |  |  |  |  | R
6 | C[C@H]1COc2c(N3CCN(C)CC3)c(F)cc3c(=O)c(C(=O)O)cn1c23 [Levofloxacin] | S | S | S | R | I | R | R | R | R | R | R | R | S | R | R |  |  |  | R
